Values quoted from earlier work, collected in patent US10413512B2, “Nicotine-containing granulate” (priority 2008, dated 2019).

What was measured:
[1] = base form
[2] = oral administration
[3] = in vivo

CN1CCC[C@H]1c1cccnc1 [Nicotine, (S)-3-(1-Methyl-2-pyrrolidinyl)pyridine]
miscibility with water [1]: miscible with water
oral bioavailability [2]: about 30%
half life in the body [3]: around two
